# Experimental data as given in PubChem BioAssay AID276 (DTP/NCI, 2004).
# Inconclusive results and toxic doses are left out.
# System: B6C3F1 mice, Lewis lung carcinoma iv, survival T/C
# Assay: NCI In Vivo Anticancer Drug Screen. Data for tumor model Lewis Lung Carcinoma (intravenous) in B6C3F1 mice
# Details: endpoint: median survival time, schedule: Q01DX009 (ip), higher = longer survival
# Outline: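 Mice carrying transplanted tumors received test compound; survival in the treated group was divided by that of the vehicle-treated control group to give the T/C value.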
# [1] = dose: 12.5 mg/kg/injection, vehicle: saline with Tween-80
# [2] = dose: 25.0 mg/kg/injection, vehicle: saline with Tween-80
# [3] = dose: 50.0 mg/kg/injection, vehicle: saline with Tween-80
# [4] = dose: 25.0 mg/kg/injection, vehicle: water
# [5] = dose: 50.0 mg/kg/injection, vehicle: water
# [6] = dose: 25.0 mg/kg/injection, vehicle: saline
# [7] = dose: 50.0 mg/kg/injection, vehicle: saline
smiles,measurement,setting,value
CNc1cccnc1/C=N/NC(N)=S,T/C,[1],104 % of control
same,T/C,[2],122 % of control
same,T/C,[3],90 % of control
O=C(NO)c1cc(O)c(O)c(O)c1,T/C,[4],100 % of control
same,T/C,[5],98 % of control
same,T/C,"dose: 100.0 mg/kg/injection, vehicle: water",100 % of control
same,T/C,"dose: 200.0 mg/kg/injection, vehicle: water",110 % of control
same,T/C,"dose: 400.0 mg/kg/injection, vehicle: water",93 % of control
COc1ccc(OC)c(Cc2cnc3nc(N)nc(N)c3c2C)c1,T/C,"dose: 6.25 mg/kg/injection, vehicle: water",104 % of control
same,T/C,"dose: 12.5 mg/kg/injection, vehicle: water",112 % of control
same,T/C,[4],100 % of control
same,T/C,[5],92 % of control
CCCCn1cnc2c(=S)nc[nH]c21,T/C,[6],112 % of control
same,T/C,[7],110 % of control
C=CC(C)(C)n1cc(C2=C(O)C(=O)C(c3cn(C(C)(C)C=C)c4ccccc34)=C(O)C2=O)c2ccccc21,T/C,"dose: 1.25 mg/kg/injection, vehicle: Klucel (hydroxypropylcellulose) (HPC)",105 % of control
same,T/C,"dose: 2.5 mg/kg/injection, vehicle: Klucel (hydroxypropylcellulose) (HPC)",110 % of control
same,T/C,"dose: 5.0 mg/kg/injection, vehicle: Klucel (hydroxypropylcellulose) (HPC)",106 % of control
same,T/C,"dose: 10.0 mg/kg/injection, vehicle: Klucel (hydroxypropylcellulose) (HPC)",100 % of control
same,T/C,"dose: 20.0 mg/kg/injection, vehicle: Klucel (hydroxypropylcellulose) (HPC)",114 % of control
same,T/C,"dose: 40.0 mg/kg/injection, vehicle: Klucel (hydroxypropylcellulose) (HPC)",119 % of control
Nc1ncn(C2OC(CO)C(O)C2O)c(=O)n1 (stereo not drawn),T/C,"dose: 6.25 mg/kg/injection, vehicle: saline",111 % of control
same,T/C,"dose: 12.5 mg/kg/injection, vehicle: saline",120 % of control
same,T/C,[6],115 % of control
same,T/C,[7],123 % of control
same,T/C,"dose: 200.0 mg/kg/injection, vehicle: saline",170 % of control
same,T/C,"dose: 400.0 mg/kg/injection, vehicle: saline",161 % of control
CCCCCCCC(=O)O[C@H]1[C@H]2[C@@H](CC1(C)C)C(=O)[C@]13O[C@H]1C(=O)[C@]1(CO1)[C@]23C,T/C,"dose: 1.25 mg/kg/injection, vehicle: saline with Tween-80",100 % of control
same,T/C,"dose: 2.5 mg/kg/injection, vehicle: saline with Tween-80",97 % of control
same,T/C,"dose: 5.0 mg/kg/injection, vehicle: saline with Tween-80",102 % of control
same,T/C,"dose: 10.0 mg/kg/injection, vehicle: saline with Tween-80",88 % of control
CCO/C=C1\SC(=S)N(c2ccccc2C)C1=O,T/C,[1],104 % of control
same,T/C,[2],110 % of control
same,T/C,[3],98 % of control
same,T/C,"dose: 100.0 mg/kg/injection, vehicle: saline with Tween-80",116 % of control
same,T/C,"dose: 200.0 mg/kg/injection, vehicle: saline with Tween-80",108 % of control
same,T/C,"dose: 400.0 mg/kg/injection, vehicle: saline with Tween-80",89 % of control
CN=C(NC#N)NCCSCc1nc[nH]c1C,T/C,"dose: 12.0 mg/kg/injection, vehicle: Klucel (hydroxypropylcellulose) (HPC)",104 % of control
same,T/C,"dose: 25.0 mg/kg/injection, vehicle: Klucel (hydroxypropylcellulose) (HPC)",100 % of control
same,T/C,"dose: 50.0 mg/kg/injection, vehicle: Klucel (hydroxypropylcellulose) (HPC)",103 % of control
same,T/C,"dose: 100.0 mg/kg/injection, vehicle: Klucel (hydroxypropylcellulose) (HPC)",99 % of control
same,T/C,"dose: 200.0 mg/kg/injection, vehicle: Klucel (hydroxypropylcellulose) (HPC)",105 % of control
same,T/C,"dose: 400.0 mg/kg/injection, vehicle: Klucel (hydroxypropylcellulose) (HPC)",95 % of control
CC1=CC(C)(C)Nc2ccc(CSc3ccccc3)cc21,T/C,"dose: 12.5 mg/kg/injection, vehicle: saline + Tween-80 + alcohol",99 % of control
same,T/C,"dose: 25.0 mg/kg/injection, vehicle: saline + Tween-80 + alcohol",108 % of control
same,T/C,"dose: 50.0 mg/kg/injection, vehicle: saline + Tween-80 + alcohol",100 % of control
same,T/C,"dose: 100.0 mg/kg/injection, vehicle: saline + Tween-80 + alcohol",101 % of control
same,T/C,"dose: 200.0 mg/kg/injection, vehicle: saline + Tween-80 + alcohol",108 % of control
same,T/C,"dose: 400.0 mg/kg/injection, vehicle: saline + Tween-80 + alcohol",108 % of control
